Consider 29 compounds from patent US20090131481A1, “Transcription Factor Modulating Compounds and Methods of Use Thereof” (Paratek Pharmaceuticals, Inc., published 2009).

Like-named read-outs stand apart in the source and are kept apart here. Some results are limits rather than exact numbers.

One data set has as its target T1, SoxS (Escherichia coli, UniProt P0A9E2).
T1 sequence (P0A9E2 1-107): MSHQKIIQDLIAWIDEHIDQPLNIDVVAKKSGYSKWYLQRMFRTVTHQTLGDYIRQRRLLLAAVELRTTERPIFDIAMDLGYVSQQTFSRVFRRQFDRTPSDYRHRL
The data set is described as follows: Chemiluminescence-based SoxS-DNA binding assay. On the set-up: made in house; species or system E. coli.

In another data set the target is LcrF (VirF) (Yersinia pestis, UniProt P28808). The data set can be described thus: biochemical. In kind it is binding, Y. pseudotuberculosis. The note with it: EC50 for inhibition of LcrF(VirF)-DNA binding.
Chain of LcrF (VirF) (P28808 whole entry, looked up): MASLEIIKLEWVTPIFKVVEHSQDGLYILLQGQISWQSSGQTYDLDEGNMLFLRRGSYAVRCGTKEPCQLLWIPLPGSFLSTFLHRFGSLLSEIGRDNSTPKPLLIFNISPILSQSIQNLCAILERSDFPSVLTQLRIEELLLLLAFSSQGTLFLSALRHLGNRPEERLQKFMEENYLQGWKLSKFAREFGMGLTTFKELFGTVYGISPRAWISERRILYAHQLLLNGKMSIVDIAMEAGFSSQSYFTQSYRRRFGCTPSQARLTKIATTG
The next data set concerns the target T2, ExsA (Pseudomonas aeruginosa, UniProt P26993).
T2 construct: made in house
T2 sequence (P26993 1-278): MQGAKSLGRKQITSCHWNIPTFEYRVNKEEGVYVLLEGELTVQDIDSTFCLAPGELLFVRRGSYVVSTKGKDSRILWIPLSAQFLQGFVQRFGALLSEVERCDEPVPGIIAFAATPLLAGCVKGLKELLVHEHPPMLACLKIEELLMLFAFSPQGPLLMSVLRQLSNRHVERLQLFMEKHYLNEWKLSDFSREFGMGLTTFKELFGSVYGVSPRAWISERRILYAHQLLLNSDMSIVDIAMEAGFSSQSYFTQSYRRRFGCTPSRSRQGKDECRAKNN
The data set is described as follows: Chemiluminescence-based ExsA-DNA binding assay. On the set-up: species or system P. aeruginosa. The note with it: Table 7, cell-free system; read-out: ExsA EC50.

The next data set has as its system Y. pseudotuberculosis. The data set can be described thus: microbe, parasite or virus in culture. The note with it: Yersinia pseudotuberculosis, J774, read-out: % Cytotoxicity.
A further data set relates to P. aeruginosa. The data set is described as follows: P. aeruginosa cytotoxicity whole cell assay (J774 cells, LDH release). The note with it: relative to vehicle treated cells infected with wild type P. aeruginosa.
[1] abbreviates: read-out: % Inhibition (SoxS binding to DNA).

By inhibition is commonly meant the percentage by which the read-out fell short of the control. Consider `CS(=O)(=O)c1ccc2nc(-c3ccccc3)n(O)c2c1` [BI], for which the inhibition at 50 µg/mL on SoxS (setting [1]) lay within 30 to 69%.
The same measure, in the same setting: as for `CC(=NO)c1ccc2nc(-c3ccccc3)n(O)c2c1` [BJ], the figure is 30 to 69%.
With `N#CCOn1c(-c2ccccc2)nc2ccc([N+](=O)[O-])cc21` [BD], the inhibition at 50 µg/mL at SoxS (setting [1]) is 0 to 29%.
With `Nc1ccc(-c2nc3ccc([N+](=O)[O-])cc3n2O)cc1` [BL], the inhibition at 50 µg/mL at SoxS (setting [1]) is above 70%.
In the case of `CCOC(=O)COn1c(-c2ccccc2)nc2ccc([N+](=O)[O-])cc21` [AP], at SoxS (setting [1]), the inhibition at 50 µg/mL was below 0%.
Take `CC(C)(C)c1ccc2nc(-c3ccccc3)n(O)c2c1` [BH]: the inhibition at 50 µg/mL on SoxS (setting [1]) was below 0%.
Regarding `Nc1cccc(-c2nc3ccc([N+](=O)[O-])cc3n2O)c1` [BO], the inhibition at 50 µg/mL is 30 to 69% at SoxS (setting [1]) and below 29% on SoxS (read-out: in vitro SoxS activity: percent inhibition of DNA-protein binding).
For orientation: EC50 means the concentration giving half of the maximal effect. Take `COc1cc(NC(=O)c2ccc(C(C)=O)cc2)ccc1-c1nc2ccc([N+](=O)[O-])cc2n1O` [ES]: the EC50 is above 25 µM at LcrF (VirF) and 10 to 25 µM at ExsA. The activity at 50 µg/mL with Y. pseudotuberculosis was below 75%. In addition, the “Cytotoxicity at 50 μg/mL Pseudomonas” value in the data set with P. aeruginosa is recorded as “** (reduced P. aeruginosa cytotoxicity below 75% of untreated, wild type levels at 50 mg/mL)”.
As for `O=C(Nc1ccc(-c2nc3ccc([N+](=O)[O-])cc3n2O)cn1)c1ccc(F)cc1` [DU], the EC50 at LcrF (VirF) and at ExsA was 10 to 25 µM each time. For the same compound, the activity at 50 µg/mL in the data set with Y. pseudotuberculosis is below 75%. Further, in the data set on P. aeruginosa, the “Cytotoxicity at 50 μg/mL Pseudomonas” value is reported as “* (reduced P. aeruginosa cytotoxicity to 99-75% of untreated, wild type levels at 50 mg/mL)”.
Consider `O=C(NCc1ccc(-c2nc3ccc([N+](=O)[O-])cc3n2O)cc1)c1ccccc1` [CD], for which, at SoxS (setting [1]), the inhibition at 50 µg/mL lay within 30 to 69%.
Still for that read-out and setting: as for `On1c(-c2ccccc2)nc2ccccc21` [AT], the figure is below 0%; as for `On1c(-c2ccccc2)nc2ccc(C(F)(F)F)cc21` [AX], 0 to 29%.
Consider `CC(=O)Nc1ccc(-c2nc3ccc([N+](=O)[O-])cc3n2O)cc1` [CH], for which the inhibition at 50 µg/mL at SoxS (setting [1]) was above 70%.
For `COc1ccc2nc(-c3ccccc3)n(O)c2c1` [AZ], the inhibition at 50 µg/mL at SoxS (setting [1]) was below 0%.
Take `COc1cc(NC(=O)/C=C/c2ccc(F)cc2)ccc1-c1nc2ccc([N+](=O)[O-])cc2n1O` [ET]: the EC50 on LcrF (VirF) and at ExsA was 10 to 25 µM each time. Moreover, the activity at 50 µg/mL with Y. pseudotuberculosis was below 75%. Moreover, the “Cytotoxicity at 50 μg/mL Pseudomonas” value in the data set with P. aeruginosa is recorded as “* (reduced P. aeruginosa cytotoxicity to 99-75% of untreated, wild type levels at 50 mg/mL)”.
On to `O=C(Nc1ccc(-c2nc3ccc([N+](=O)[O-])cc3n2O)cc1)C1=Cc2ccccc2OC1` [EY], for which the EC50 on LcrF (VirF) and on ExsA was 10 to 25 µM throughout. Besides, in the data set with Y. pseudotuberculosis, the activity at 50 µg/mL is below 75%. In the data set on P. aeruginosa, the “Cytotoxicity at 50 μg/mL Pseudomonas” value was “* (reduced P. aeruginosa cytotoxicity to 99-75% of untreated, wild type levels at 50 mg/mL)”.
Take `O=C(Nc1ccc(-c2nc3ncc([N+](=O)[O-])cc3n2O)cc1)c1ccc(F)cc1` [DI]: the EC50 at LcrF (VirF) and on ExsA was 10 to 25 µM each time. For the same compound, the activity at 50 µg/mL with Y. pseudotuberculosis is below 75%. The “Cytotoxicity at 50 μg/mL Pseudomonas” value in the data set on P. aeruginosa was “* (reduced P. aeruginosa cytotoxicity to 99-75% of untreated, wild type levels at 50 mg/mL)”.
Take `N#Cc1ccc2nc(-c3ccc(NC(=O)c4ccc(F)cc4)cc3)n(O)c2c1` [CV]: the values for the EC50 at LcrF (VirF) and on ExsA were above 25 µM and 10 to 25 µM, respectively. In addition, in the data set on Y. pseudotuberculosis, the activity at 50 µg/mL is below 75%. The “Cytotoxicity at 50 μg/mL Pseudomonas” value in the data set with P. aeruginosa is “* (reduced P. aeruginosa cytotoxicity to 99-75% of untreated, wild type levels at 50 mg/mL)”.
For the compound `O=[N+]([O-])c1ccc2nc(-c3ccc(Oc4ccccc4)cc3)n(O)c2c1` [BW], the inhibition at 50 µg/mL on SoxS (setting [1]) was 0 to 29%.
For the compound `COc1cc(NC(=O)c2ccc(F)cc2)ccc1-c1nc2ccc([N+](=O)[O-])cc2n1O` [DT], the EC50 at LcrF (VirF) was above 25 µM; at ExsA it was 10 to 25 µM. Also, the activity at 50 µg/mL in the data set on Y. pseudotuberculosis is below 75%. Moreover, the “Cytotoxicity at 50 μg/mL Pseudomonas” value in the data set on P. aeruginosa is given as “* (reduced P. aeruginosa cytotoxicity to 99-75% of untreated, wild type levels at 50 mg/mL)”.
For the compound `O=C(/C=C/c1ccc(F)c(CP(=O)(O)O)c1)Nc1ccc(-c2nc3ccc([N+](=O)[O-])cc3n2O)cc1` [DX], the EC50 on LcrF (VirF) and on ExsA was 10 to 25 µM throughout. Moreover, in the data set with Y. pseudotuberculosis, the activity at 50 µg/mL was below 75%. The “Cytotoxicity at 50 μg/mL Pseudomonas” value in the data set on P. aeruginosa is “* (reduced P. aeruginosa cytotoxicity to 99-75% of untreated, wild type levels at 50 mg/mL)”.
With `Cc1cc(C(=O)Nc2ccc(-c3nc4ccc([N+](=O)[O-])cc4n3O)cc2)ccc1F` [DD], the EC50 on LcrF (VirF) and at ExsA was 10 to 25 µM each time. Moreover, the activity at 50 µg/mL in the data set on Y. pseudotuberculosis is below 75%. Further, the “Cytotoxicity at 50 μg/mL Pseudomonas” value in the data set with P. aeruginosa was “* (reduced P. aeruginosa cytotoxicity to 99-75% of untreated, wild type levels at 50 mg/mL)”.
Take `CC(=O)c1ccc(C(=O)Nc2ccc(-c3nc4ccc([N+](=O)[O-])cc4n3O)nc2)cc1` [DR]: the EC50 on LcrF (VirF) is above 25 µM; at ExsA, 10 to 25 µM. Also, the activity at 50 µg/mL with Y. pseudotuberculosis is below 75%. For the same compound, the “Cytotoxicity at 50 μg/mL Pseudomonas” value with P. aeruginosa is reported as “* (reduced P. aeruginosa cytotoxicity to 99-75% of untreated, wild type levels at 50 mg/mL)”.
`O=C(Nc1ccc(-c2nc3ccc([N+](=O)[O-])cc3n2O)c(F)c1)c1ccc(F)cc1` [DS]: the EC50 on LcrF (VirF) and at ExsA was 10 to 25 µM each time. The activity at 50 µg/mL in the data set on Y. pseudotuberculosis was below 75%. Besides, the “Cytotoxicity at 50 μg/mL Pseudomonas” value in the data set with P. aeruginosa was “* (reduced P. aeruginosa cytotoxicity to 99-75% of untreated, wild type levels at 50 mg/mL)”.
Turning to `COc1cc(C(=O)Nc2ccc(-c3nc4ccc([N+](=O)[O-])cc4n3O)cc2)ccc1F` [DM], the EC50 on LcrF (VirF) and on ExsA was 10 to 25 µM throughout. Besides, the activity at 50 µg/mL in the data set on Y. pseudotuberculosis is below 75%. For the same compound, the “Cytotoxicity at 50 μg/mL Pseudomonas” value with P. aeruginosa was “* (reduced P. aeruginosa cytotoxicity to 99-75% of untreated, wild type levels at 50 mg/mL)”.
`CCc1cc(-c2nc3ccc([N+](=O)[O-])cc3n2O)ccc1NC(=O)c1ccc(C(C)=O)cc1` [DL]: the EC50 at LcrF (VirF) and at ExsA was 10 to 25 µM in each case. Besides, in the data set on Y. pseudotuberculosis, the activity at 50 µg/mL is below 75%. For the same compound, the “Cytotoxicity at 50 μg/mL Pseudomonas” value with P. aeruginosa was “* (reduced P. aeruginosa cytotoxicity to 99-75% of untreated, wild type levels at 50 mg/mL)”.
As for `O=C(Nc1ccc(-c2nc3ccc([N+](=O)[O-])cc3n2O)cc1)c1ccc(-c2cncnc2)cc1` [DC], the results for the EC50 on LcrF (VirF) and at ExsA were above 25 µM and 10 to 25 µM, respectively. Moreover, in the data set on Y. pseudotuberculosis, the activity at 50 µg/mL was 75 to 99%. For the same compound, the “Cytotoxicity at 50 μg/mL Pseudomonas” value with P. aeruginosa is reported as “* (reduced P. aeruginosa cytotoxicity to 99-75% of untreated, wild type levels at 50 mg/mL)”.
For `CCOP(=O)(COn1c(-c2ccc(NC(=O)/C=C/c3ccc(F)cc3)cc2)nc2ccc([N+](=O)[O-])cc21)OCC` [ED, (2-{4-[(E)-3-(4-Fluoro-phenyl)-acrloylamino]-phenyl}-6-nitro-benzoimidazol-1-yloxymethyl)-phosphonic acid diethyl ester], the values for the EC50 on LcrF (VirF) and at ExsA were above 25 µM and below 10 µM, respectively. In the data set on Y. pseudotuberculosis, the activity at 50 µg/mL was below 75%. In the data set on P. aeruginosa, the “Cytotoxicity at 50 μg/mL Pseudomonas” value was “* (reduced P. aeruginosa cytotoxicity to 99-75% of untreated, wild type levels at 50 mg/mL)”.
Turning to `O=C(Nc1ccc(-c2nc3ccc([N+](=O)[O-])cc3n2O)cc1)c1ccc(F)c(F)c1` [DA], the EC50 at LcrF (VirF) and at ExsA was 10 to 25 µM throughout. The activity at 50 µg/mL with Y. pseudotuberculosis was below 75%. Further, the “Cytotoxicity at 50 μg/mL Pseudomonas” value with P. aeruginosa is “* (reduced P. aeruginosa cytotoxicity to 99-75% of untreated, wild type levels at 50 mg/mL)”.
